Source: patent publication US20170008888A1 (KYORIN PHARMACEUTICAL CO., LTD., priority 2014, published 2017)
Like-named read-outs stand apart in the source and are kept apart here.

Key:
murine Th17 cells = assay: Cytokine response by in vitro-polarized murine Th17 cells stimulated with PMA/ionomycin; format: cell-based; conditions: Mus musculus, PMA/ionomycin 20 h
Method: Purification of murine CD4+ T cells: To isolate mouse splenocytes, freshly isolated mouse spleens were minced in culture media (RPMI 1640 (Lonza, Allendale, N.J.) containing 10% (v/v) charcoal-dextran filtered, heat inactivated FBS (Omega Scientific, Tarzana, Calif.), 0.05 mM 2-Mercaptoethanol (Sigma-Aldrich, St. Louis, Mo.), and 1×Pen/Strep Amphotericin B (Lonza)), using a sterile razor blade then pushed through 70 and 40 μm cell strainers. Cells were resuspended in ACK Lysing Buffer (Lonza) for 3 minutes at room temperature to lyse the red blood cells. CD4+ T cells were isolated from the mouse splenocytes using the EasySep negative selection mouse CD4+ T cell isolation kit (Stemcell, Vancouver, Canada) according to manufacturer's instructions briefly as follows: Unwanted cells were specifically labeled by incubation with a cocktail of biotinylated antibodies directed against cell surface antigens on mouse cells of hematopoietic origin (CD8a, CD11b, CD11c, CD19, CD45R/B220, CD49b, TCRγ/δ, and TER119). Labeled cells were then magnetically removed using streptavidin-bound magnetic beads, leaving the desired CD4+ T cells.
In vitro mouse Th17 differentiation: Mouse CD4+ T cells isolated as above were polarized into Th17 cells as follows: Tissue culture-treated 100 mm plates (Corning, Corning, N.Y.) were coated with 2 μg/ml purified NA/LE hamster anti-mouse CD3e clone 145-2C11 antibody (BD Biosciences, San Jose, Calif.) overnight at 4° C. Each coated plate was seeded with ˜2-3 e6 mouse CD4+ T cells in polarization media consisting of culture media (RPMI 1640/FBS/2-Mercaptoethanol/Pen/Strep Amphotericin B) supplemented with: recombinant mouse IL-6 (50 ng/ml), […] (50 ng/ml), IL-23 (50 ng/ml)(R&D Systems, Minneapolis, Minn.), recombinant human TGF1β (5 ng/ml) (Cell Signaling Technology, Danvers, Mass.), anti-CD28 clone 37.51 (10 μg/ml)(BD Biosciences, San Jose, Calif.), anti-IL-2 clone JES6-1A12 (1 μg/ml), anti-IL-4 clone 11B11 (10 μg/ml), and anti-IFNγ clone XMG1.2 (10 μg/ml). All recombinant mouse cytokines and anti-mouse neutralizing antibodies were purchased from eBioscience (San Diego, Calif.) unless otherwise specified. Cells were incubated in the above Polarization media for 3 d at 37° C. in a humidified atmosphere at 5% CO2. After 3 d, cells were re-polarized as above, except for the following cytokine and neutralizing antibody concentration changes: recombinant mouse IL-6 (40 ng/ml), recombinant human TGFβ (1 ng/ml), anti-CD28 clone 37.51 (5 μg/ml), anti-IL-2 clone JES6-1A12 (0.5 μg/ml), anti-IL-4 clone 11B11 (5 μg/ml), and anti-IFNγ clone XMG1.2 (5 μg/ml). Cells were maintained under the above conditions for an additional 3 d at 37° C. in humidified atmosphere at 5% CO2 for a total of 6 days of polarization.
Inhibition of cytokine response by in vitro-polarized murine Th17 cells stimulated with PMA/ionomycin: Murine Th17 cells, polarized as described above, were seeded at 2e6 cells/ml in culture media. Cells were pre-treated with test compounds (10 μM down by ⅕ in a 4-point serial dilution series) for 1 h at 37° C. in a humidified atmosphere at 5% CO2. Cells were then stimulated with 50 ng/ml phorbol 12-myristate 13-acetate (PMA)(Sigma-Aldrich, St. Louis, Mo.)+1 μg/ml ionomycin (Life Technologies, Grand Island, N.Y.) for 20 h at 37° C. in a humidified atmosphere at 5% CO2. Supernatant was collected and analyzed using Bio-Plex Pro Mouse Cytokine Th17 Panel A 6-Plex and the Bio-Plex Pro Mouse Cytokine Th17 Panel B 8-Plex (Bio-Rad Laboratories, Hercules, Calif.) as per manufacturer's protocols. Magnetic beads were read on the Bio-Plex MAGPIX multiplex reader instrument using the accompanying xPONENT 4.2 acquisition software (Bio-Rad Laboratories, Hercules, Calif.). Data were analyzed via the Bio-Plex Manager software v6.1 (Bio-Rad Laboratories).

[1] = tested on: immortalized normal human bronchial epithelial BEAS-2B cells; assay: IL-17A- or IL-17F-mediated cytokine response by BEAS-2B cells; format: cell-based; conditions: 48 h
Method: The virally immortalized, normal human bronchial epithelial cell line BEAS-2B was purchased from ATCC (Manassas, Va.). Primary bronchial epithelial cells isolated from a patient diagnosed with asthma were obtained from Lonza (Allendale, N.J.). Both cells were maintained in complete Bronchial Epithelial Cell Growth Medium (BEGM) (Lonza). Cells were seeded at 1e5 cells/ml and incubated at 37° C. in a humidified atmosphere at 5% CO2 overnight to adhere. Cells were pre-treated with test compounds (10 μM down by ⅕ in a 3- or 4-point serial dilution series) for 1 h at 37° C. in a humidified atmosphere at 5% CO2. DMSO at a final concentration of 0.1% served as the non-inhibited control. Budesonide (Selleck Chemicals, Houston, Tex.), a clinically approved glucocorticoid steroid for the treatment of asthma, was tested as a positive control at 0.25 μM. Cells were stimulated with 50 ng/ml of either human recombinant IL-17A or IL-17F (eBioscience, San Diego, Calif.), for 48 h. Supernatant was then collected and analyzed for cytokine concentrations using the Bio-Plex Pro Human Cytokine 17-Plex Panel (Bio-Rad Laboratories, Hercules, Calif.) according to the manufacturer's instructions. Magnetic beads were measured on the Bio-Plex MAGPIX multiplex reader instrument using the accompanying xPONENT 4.2 acquisition software (Bio-Rad Laboratories). Data were analyzed via the Bio-Plex Manager software v6.1 (Bio-Rad Laboratories). For the primary asthmatic bronchial epithelial cells, five (+IL-17F) to thirteen (+IL-17A) cytokines were in range of detection under the conditions used. […] Select cytokines were analyzed for comparison using the BEAS-2B cell line.

[2] = read-out: EC50 (nM) of cytokine reduction, IFNγ
[3] = read-out: EC50 (nM) of cytokine reduction, IL-6
[4] = read-out: EC50 (nM) of cytokine reduction, IL-10
[5] = read-out: EC50 (nM) of cytokine reduction, IL-17A
[6] = read-out: EC50 (nM) of cytokine reduction, IL-21
[7] = read-out: EC50 (nM) of cytokine reduction, IL-22
[8] = read-out: EC50 (nM) of cytokine reduction, IL-23p19
[9] = +50 ng/ml IL-17A, read-out: EC50 values (μM), IL-6
[10] = +50 ng/ml IL-17A, read-out: EC50 values (μM), IL-8
[11] = +50 ng/ml IL-17F, read-out: EC50 values (μM), IL-6
[12] = +50 ng/ml IL-17F, read-out: EC50 values (μM), IL-8

Structure (SMILES)	EC50 (murine Th17 cells; [2])	EC50 (murine Th17 cells; [3])	EC50 (murine Th17 cells; [4])	EC50 (murine Th17 cells; [5])	EC50 (murine Th17 cells; [6])	EC50 (murine Th17 cells; [7])	EC50 (murine Th17 cells; [8])	EC50 [1, 9]	EC50 [1, 10]	EC50 [1, 11]	EC50 [1, 12]
CCOc1cc(C(=O)N2CCC(N3CCN(C)CC3)CC2)ccc1Nc1cc2c(cn1)N(C)C(=O)c1occc1N2C [Compound 65]	> 10000 nM	2380 nM	979 nM	> 10000 nM	8280 nM	5080 nM	940 nM	–	–	–	–
CCOc1cc(C(=O)N2CC[C@@H](N(C)C)C2)ccc1Nc1cc2c(cn1)N(C)C(=O)c1ccccc1N2C [Compound 115]	1770 nM	1170 nM	373 nM	4980 nM	2110 nM	880 nM	360 nM	0.21 µM	0.42 µM	0.14 µM	0.13 µM
CCOc1cc(C(=O)N2CCNCC2)ccc1Nc1cc2c(cn1)N(C)C(=O)c1ccccc1N2C [Compound 62]	8540 nM	2480 nM	1820 nM	> 10000 nM	4980 nM	5010 nM	1340 nM	–	–	–	–
CCOc1cc(C(=O)NCC2CC2)ccc1Nc1cc2c(cn1)N(C)C(=O)c1ccccc1N2C [Compound 57]	6930 nM	2920 nM	2150 nM	> 10000 nM	3990 nM	2120 nM	840 nM	–	–	–	–
CCOc1cc(C(=O)N2CCC(N3CCN(C)CC3)CC2)ccc1Nc1cc2c(cn1)N(C)C(=O)c1ccccc1N2C [Compound 61]	> 10000 nM	1600 nM	1090 nM	> 10000 nM	4240 nM	2980 nM	800 nM	0.68 µM	0.42 µM	0.42 µM	0.51 µM
CCOc1cc(C(=O)N2CCC(N3CCCC3)CC2)ccc1Nc1cc2c(cn1)N(C)C(=O)c1ccccc1N2C [Compound 46, 3-(2-Ethoxy-4-(4-(pyrrolidin-1-yl)piperidine-1-carbonyl)phenylamino)-5,11-dimethyl-5H-benzo[e]pyrido[3,4-b][1,4]diazepin-10(11H)-one]	4270 nM	1740 nM	577 nM	> 10000 nM	4850 nM	2630 nM	480 nM	0.51 µM	0.4 µM	0.38 µM	0.32 µM
